Measurements published in patent US20100172854A1, “ANTIBACTERIAL FORMULATIONS” (priority 2007, published 2010).
Converted amounts (≈) assume the structure as drawn.

Columns and labels:
[1] = system: Propionibacterium acnes NCTC 737; assay: MBC assay; format: cell-based; conditions: P. acnes NCTC 737
Protocol: (§1) The propionibacteria were cultured and maintained on Wilkins-Chalgren Anaerobe Medium (agar and broth) at pH 6.0; all cultures were incubated anaerobically at 37° C. for 72 hours.
(§2) This assay, normally carried out after an MIC assay, determines the minimum concentration of a compound that is lethal to the micro-organism being tested.
(§3) These samples were then individually sub-cultured on antibiotic-free agar medium, under the incubation conditions described above. Following incubation they were examined visually for microbial growth.

[2] = system: S. epidermidis NCTC 11047; assay: MBC assay; format: cell-based
Protocol: (§4) The staphylococci were cultured and maintained on Mueller-Hinton Medium (agar and broth) at pH 7.2; cultures were incubated aerobically at 37° C. for 19-20 hours.
as §2, §3

[3] = system: S. saprophyticus NCTC 7292; assay: MBC assay; format: cell-based
Protocol: as §4, §2, §3

[4] = system: Staphylococcus aureus ATCC 12600; assay: MBC assay; format: cell-based
Protocol: as §4, §2, §3

[5] = system: Staphylococcus aureus ATCC 29213; assay: MBC assay; format: cell-based; conditions: S. aureus ATCC 29213
Protocol: as §4, §2, §3

[6] = system: Staphylococcus auricularis ATCC 33753; assay: MBC assay; format: cell-based
Protocol: as §4, §2, §3

[7] = system: Staphylococcus capitis ATCC 27840; assay: MBC assay; format: cell-based
Protocol: as §4, §2, §3

[8] = system: Staphylococcus cohnii ATCC 29974; assay: MBC assay; format: cell-based
Protocol: as §4, §2, §3

[9] = system: Staphylococcus haemolyticus ATCC 29970; assay: MBC assay; format: cell-based
Protocol: as §4, §2, §3

[10] = system: Staphylococcus hominis ATCC 27844; assay: MBC assay; format: cell-based
Protocol: as §4, §2, §3

[11] = system: Staphylococcus simulans ATCC 27848; assay: MBC assay; format: cell-based
Protocol: as §4, §2, §3

[12] = system: Staphylococcus warneri ATCC 27836; assay: MBC assay; format: cell-based
Protocol: as §4, §2, §3

[13] = system: Staphylococcus xylosus ATCC 29971; assay: MBC assay; format: cell-based
Protocol: as §4, §2, §3

[14] = system: Porphyromonas gingivalis ATCC 53978; assay: MIC assay; format: cell-based; conditions: ATCC53978
Protocol: (§5) The P. gingivalis strains were cultured and maintained on Wilkins-Chalgren Anaerobe Medium (agar and broth) at pH 7.0; all cultures were incubated anaerobically at 37° C. for 5-7 days.
(§6) This is a standard international method for quantitatively assessing the antimicrobial activity of a compound in a liquid medium. The method used a sterile 96-well microtitre plate, capable of holding about 200 μl of liquid per well. The wells contained liquid culture medium and ranges of decreasing concentrations of the relevant test compound in doubling dilutions (e.g. 1000, 500, 250, 125 . . . μg/ml, etc. down to 0.49 μg/ml). The culture media were as described above.
(§7) The wells were inoculated with a liquid suspension of freshly grown micro-organism and incubated under the conditions described above. After incubation, the microtitre plate was examined visually (with the aid of a light box) for cloudiness in each well, which would indicate microbial growth. The MIC value was recorded as the lowest concentration of test compound required to inhibit microbial growth, i.e. the lowest concentration for which the liquid in the well remained clear.
(§8) The assays included both negative (culture medium with no micro-organisms) and positive (culture medium plus diluting solvent plus micro-organism) controls.

[15] = system: Porphyromonas gingivalis ATCC BAA-308; assay: MIC assay; format: cell-based; conditions: ATCCBAA308
Protocol: as §5, §6, §7, §8

[16] = system: Porphyromonas gingivalis NCTC 11834; assay: MIC assay; format: cell-based; conditions: NCTC11834
Protocol: as §5, §6, §7, §8

[17] = system: P. granulosum PRP-019; assay: Agar dilution MIC assay; format: cell-based; conditions: Propionibacterium, PRP019, resistance phenotype MLSK
Protocol: as §1
(§9) This is a standard international method for quantitatively assessing the antimicrobial activity of a compound in a solid medium. The test compound was prepared to 40× the highest concentration required (e.g. 10 mg/ml for a final concentration of 250 μg/ml) and a series of doubling dilutions were performed in a suitable solvent. A set amount of these antimicrobial stock solutions was then added to molten agar medium (ca. 55° C.), mixed thoroughly, poured into sterile Petri dishes and allowed to cool/set. The culture medium was as described above.
(§10) A Multipoint™ Inoculator (AQS Manufacturing Ltd, UK) was used to inoculate the plates by spotting the inocula onto the surface of the agar, delivering approximately 1 to 2 μl per spot (yielding 10^5 CFU (colony forming units) per spot).
(§11) The plate(s) were then incubated under the conditions described above, following which they were examined visually for signs of bacterial growth. The MIC value was ascertained when there was a marked reduction in, or total loss of, growth on the test plate at the lowest concentration as compared to that of the growth on the control plate.
(§12) The assays were conducted in triplicate and included a positive control (culture medium, diluting solvent and inoculum).

[18] = system: P. granulosum PRP-021; assay: Agar dilution MIC assay; format: cell-based; conditions: Propionibacterium, PRP021, resistance phenotype MLS
Protocol: as §1, §9, §10, §11, §12

[19] = system: P. granulosum PRP-043; assay: Agar dilution MIC assay; format: cell-based; conditions: Propionibacterium, PRP043, resistance phenotype MLS
Protocol: as §1, §9, §10, §11, §12

[20] = system: P. granulosum PRP-044; assay: Agar dilution MIC assay; format: cell-based; conditions: Propionibacterium, PRP044, resistance phenotype MLS
Protocol: as §1, §9, §10, §11, §12

[21] = system: Propionibacterium acnes NCTC 737; assay: Agar dilution MIC assay; format: cell-based; conditions: Cutibacterium acnes, NCTC737, resistance phenotype None
Protocol: as §1, §9, §10, §11, §12

[22] = system: Propionibacterium granulosum NCTC 11865; assay: Agar dilution MIC assay; format: cell-based; conditions: NCTC11865, resistance phenotype None
Protocol: as §1, §9, §10, §11, §12

[23] = system: a range of test bacteria; conditions: compound isolated from Aspergillus fumigatus, believed to be Antioxidant 2246; cited from earlier work

In the case of `Cc1cc(Cc2cc(C)cc(C(C)(C)C)c2O)c(O)c(C(C)(C)C)c1` [AO 2246, 2,2′-methylene-bis(4-methyl-6-tert-butylphenol)], the MBC ([1]; Cutibacterium acnes, NCTC737) is reported as 15.6 µg/mL (≈ 45.8 µM), the MIC/MBC Ratio [1] is reported as 0.25 and the “MIC/MBC Ratio” value [2] is reported as 0.5. For the same compound, the MBC ([2]; Staphylococcus epidermidis, NCTC11047) was 7.8 µg/mL (≈ 22.9 µM), the “MIC/MBC Ratio” value [3] was 1 and the MBC ([3]; Staphylococcus saprophyticus, NCTC7292) was 3.9 µg/mL (≈ 11.5 µM). The “MIC/MBC Ratio” value [4] was 0.06, the MBC ([4]; ATCC12600) was 15.6 µg/mL (≈ 45.8 µM) and the MIC/MBC Ratio [5] was 0.5. The MBC ([5]; Staphylococcus aureus, ATCC29213) was 7.8 µg/mL (≈ 22.9 µM), the “MIC/MBC Ratio” value [6] was 0.5 and the MBC ([6]; ATCC33753) was 3.9 µg/mL (≈ 11.5 µM). For the same compound, the “MIC/MBC Ratio” value [7] was 0.25, the MBC ([7]; ATCC27840) was 15.6 µg/mL (≈ 45.8 µM) and the “MIC/MBC Ratio” value [8] was 1. For the same compound, the MBC ([8]; ATCC29974) was 3.9 µg/mL (≈ 11.5 µM), the “MIC/MBC Ratio” value [9] was 1 and the MBC ([9]; ATCC29970) was 3.9 µg/mL (≈ 11.5 µM). The “MIC/MBC Ratio” value [10] was 0.25, the MBC ([10]; ATCC27844) was 31.2 µg/mL (≈ 91.8 µM) and the “MIC/MBC Ratio” value [11] was 0.5. The MBC ([11]; ATCC27848) was 31.2 µg/mL (≈ 91.8 µM), the “MIC/MBC Ratio” value [12] was under 0.5 and the MBC ([12]; ATCC27836) was over 31.2 µg/mL. The “MIC/MBC Ratio” value [13] was 1, the MBC ([13]; ATCC29971) was 3.9 µg/mL (≈ 11.5 µM) and the MIC [14] was 0.98 µg/mL (≈ 2.88 µM). For the same compound, the MIC [15] was 3.9 µg/mL (≈ 11.5 µM), the MIC [16] was 3.9 µg/mL (≈ 11.5 µM) and the MIC [17] was 3.9 µg/mL (≈ 11.5 µM). For the same compound, the MIC [18] was 3.9 µg/mL (≈ 11.5 µM), the MIC [19] was 1.95 µg/mL (≈ 5.73 µM) and the MIC [20] was 3.9 µg/mL (≈ 11.5 µM). The MIC [21] was 3.9 µg/mL (≈ 11.5 µM), the MIC [22] was 1.95 µg/mL (≈ 5.73 µM) and the “in vitro antimicrobial activity” value [23] was “no in vitro antimicrobial activity”.
